Test results as given in the supplement of paper PMC10307832.

Experiments:
Assay in all cases: relative viability (nuclei count vs DMSO), 5 days (fraction); higher = more cells survive
[1] = compound: COc1cc2nc(N3CCCN(C)CC3)nc(NC3CCN(Cc4ccccc4)CC3)c2cc1OC + O=C(c1cc(Cc2n[nH]c(=O)c3ccccc23)ccc1F)N1CCN(C(=O)C2CC2)CC1 [Olaparib] (partner 8 µM)
Method in brief: (§1)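 Each reported value is a median over duplicate plates. It expresses relative viability: treated-well nuclei count divided by vehicle-well nuclei count. Lung cancer cell lines in 1536-well plates were dosed by pin tool a day after seeding, alone with one drug or with a fixed anchor-drug dose plus five library-drug doses (not always all listed) in √10 steps, and nuclei were counted after 5 days.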

AZD6482 + Trametinib = compound: Cc1cc([C@@H](C)Nc2ccccc2C(=O)O)c2nc(N3CCOCC3)cc(=O)n2c1 [AZD6482] + CC(=O)Nc1cccc(-n2c(=O)n(C3CC3)c(=O)c3c(Nc4ccc(I)cc4F)n(C)c(=O)c(C)c32)c1 [Trametinib] (partner 0.02 µM)
Method in brief: as §1

AZD6482 + Crizotinib = compound: Cc1cc([C@@H](C)Nc2ccccc2C(=O)O)c2nc(N3CCOCC3)cc(=O)n2c1 [AZD6482] + C[C@@H](Oc1cc(-c2cnn(C3CCNCC3)c2)cnc1N)c1c(Cl)ccc(F)c1Cl [Crizotinib] (partner 1 µM)
Method in brief: as §1

AZD6482 + OSI-027 = compound: Cc1cc([C@@H](C)Nc2ccccc2C(=O)O)c2nc(N3CCOCC3)cc(=O)n2c1 [AZD6482] + COc1cccc2cc(-c3nc([C@H]4CC[C@H](C(=O)O)CC4)n4ncnc(N)c34)[nH]c12 [OSI-027] (partner 0.5 µM)
Method in brief: as §1

| Cell Line | relative viability ([1]; first compound 0.2 µM) | relative viability ([1]; first compound 0.6325 µM) | relative viability ([1]; first compound 2 µM) | relative viability ([1]; first compound 6.325 µM) | relative viability (AZD6482 + Trametinib; first compound 0.08 µM) | relative viability (AZD6482 + Trametinib; first compound 0.253 µM) | relative viability (AZD6482 + Trametinib; first compound 0.8 µM) | relative viability (AZD6482 + Trametinib; first compound 2.53 µM) | relative viability (AZD6482 + Trametinib; first compound 8 µM) | relative viability (AZD6482 + Crizotinib; first compound 0.08 µM) | relative viability (AZD6482 + Crizotinib; first compound 0.253 µM) | relative viability (AZD6482 + Crizotinib; first compound 0.8 µM) | relative viability (AZD6482 + Crizotinib; first compound 2.53 µM) | relative viability (AZD6482 + Crizotinib; first compound 8 µM) | relative viability (AZD6482 + OSI-027; first compound 0.08 µM) | relative viability (AZD6482 + OSI-027; first compound 0.253 µM) | relative viability (AZD6482 + OSI-027; first compound 0.8 µM) | relative viability (AZD6482 + OSI-027; first compound 2.53 µM) | relative viability (AZD6482 + OSI-027; first compound 8 µM) |
| --- | --- | --- | --- | --- | --- | --- | --- | --- | --- | --- | --- | --- | --- | --- | --- | --- | --- | --- | --- |
| COR-L 105 | 0.632 | 0.626 | 0.624 | 0.372 | 0.378 | 0.451 | 0.46 | 0.383 | 0.423 | 0.8 | 0.742 | 0.742 | 0.581 | 0.828 | 0.75 | 0.742 | 0.577 | 0.33 | 0.517 |
| NCI-H1355 | 0.714 | 0.743 | 0.862 | 0.79 | 0.345 | 0.374 | 0.37 | 0.339 | 0.305 | 0.777 | 0.959 | 1.07 | 0.797 | 0.726 | 0.287 | 0.323 | 0.384 | 0.256 | 0.298 |
| H3255 | 0.592 | 0.552 | 0.541 | 0.562 | 0.604 | 0.551 | 0.575 | 0.402 | 0.367 | 0.869 | 0.819 | 0.841 | 0.534 | 0.714 | 0.618 | 0.53 | 0.554 | 0.411 | 0.392 |
| NCI-H1993 | 1.03 | 1.05 | 1.14 | 1.2 | 0.506 | 0.498 | 0.446 | 0.52 | 0.475 | 0.671 | 0.74 |  |  | 0.764 | 0.502 | 0.521 | 0.516 | 0.529 | 0.534 |
| NCI-H1734 | 0.61 | 0.533 | 0.645 | 0.594 | 0.613 | 0.656 | 0.565 | 0.519 | 0.491 | 0.627 | 0.733 | 0.622 | 0.47 | 0.471 | 0.46 | 0.509 | 0.542 | 0.362 | 0.387 |
| HOP-62 | 0.393 | 0.202 | 0.355 | 0.537 | 0.247 | 0.342 | 0.242 | 0.262 | 0.232 | 1.07 | 0.897 | 0.609 | 0.782 | 0.751 | 0.817 | 0.883 | 0.774 | 0.553 | 0.765 |
| LOU-NH91 | 0.911 | 0.918 | 0.968 | 0.958 | 0.752 | 0.8 | 0.757 | 0.603 | 0.623 | 0.709 | 0.725 | 0.74 | 0.564 | 0.563 | 0.606 | 0.702 | 0.66 | 0.455 | 0.579 |
| ChaGo-K-1 | 0.386 | 0.44 | 0.375 | 0.39 | 0.922 | 0.874 | 0.878 | 0.803 | 0.857 | 1.11 |  | 0.744 | 1.23 | 1.12 | 0.634 | 0.323 | 0.539 | 0.477 | 0.49 |
| NCI-H2228 | 0.637 | 0.62 | 0.46 | 0.35 | 0.342 | 0.579 | 0.457 | 0.484 | 0.494 | 0.368 | 0.46 | 0.308 | 0.254 | 0.275 |  | 0.316 | 0.548 | 0.358 | 0.445 |
| PC-14 | 0.322 | 0.374 | 0.279 | 0.0641 | 0.704 | 0.747 | 0.794 | 0.455 | 0.622 | 0.826 | 0.896 | 0.904 | 0.783 | 0.876 | 0.723 | 1.04 | 0.841 | 0.658 | 0.954 |
| NCI-H1437 | 0.626 | 0.628 | 0.623 | 0.574 | 0.506 | 0.451 | 0.473 | 0.298 | 0.282 | 0.921 | 0.949 | 1.02 | 0.788 | 0.872 | 0.983 | 0.855 | 1.07 | 0.471 | 0.567 |
| NCI-H460 | 0.425 | 0.397 | 0.37 | 0.323 | 0.138 | 0.106 | 0.146 | 0.0746 | 0.126 | 0.874 | 0.644 | 0.99 | 0.6 | 0.471 | 0.631 | 0.589 | 0.543 | 0.326 | 0.292 |
| NCI-H1666 | 0.716 | 0.754 | 0.756 | 0.751 | 0.766 | 0.944 | 0.808 | 0.81 | 0.835 | 0.84 | 1.11 | 0.823 | 0.712 | 0.989 | 0.684 | 0.765 | 0.918 | 0.66 | 0.8 |
| NCI-H1651 | 0.181 | 0.149 | 0.157 | 0.17 | 0.767 | 0.7 | 0.835 | 0.691 | 0.68 | 0.816 | 0.857 | 0.874 | 0.835 | 0.729 | 0.601 | 0.59 | 0.655 | 0.567 | 0.539 |
| NCI-H1755 | 0.805 | 0.832 | 0.85 | 0.831 | 0.7 | 0.75 | 0.693 | 0.542 | 0.508 | 0.717 | 0.769 | 0.704 | 0.545 | 0.487 | 0.605 | 0.595 | 0.662 | 0.486 | 0.494 |
| NCI-H661 | 0.731 | 0.713 | 0.822 | 0.782 | 0.615 | 0.555 | 0.61 | 0.428 | 0.387 |  | 1.03 | 1.02 |  | 0.971 | 0.651 | 0.722 | 0.649 | 0.4 | 0.435 |
| HARA | 0.79 | 1.1 | 0.832 | 1.05 | 0.538 | 0.496 | 0.453 | 0.336 | 0.352 | 0.857 | 1.04 | 0.839 |  | 0.899 | 0.318 | 0.528 | 0.633 | 0.249 | 0.376 |
